Data reported in the supplement of paper PMC4862054.

Key:
Details in all cases: incubation time: 72 h
DU-4475 [1] = assay: normalised viability (% of control), CellTiter-Blue; higher = more viable cells (about 100 = DMSO control)
Method: (§1)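 DSRT, CellTiter-Blue viability, 72 h incubation. Signal is normalised to DMSO and benzethonium chloride controls. Value is the normalised response at dose 9.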

CAL-85-1 [2] = assay: as above
Method: as §1

CAL-148 [3] = assay: as above
Method: as §1

HDQ-P1 [4] = assay: as above
Method: as §1

CAL-51 [5] = assay: as above
Method: as §1

MDA-MB-453 [6] = assay: as above
Method: as §1

DU-4475 [7] = assay: as above; remark: listed apart in the source
Method: (§2)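 DSRT, CellTiter-Blue viability, 72 h incubation. Signal is normalised to DMSO and benzethonium chloride controls. Value is the normalised response at dose 8.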

CAL-85-1 [8] = assay: as above; remark: listed apart in the source
Method: as §2

CAL-148 [9] = assay: as above; remark: listed apart in the source
Method: as §2

HDQ-P1 [10] = assay: as above; remark: listed apart in the source
Method: as §2

CAL-51 [11] = assay: as above; remark: listed apart in the source
Method: as §2

MDA-MB-453 [12] = assay: as above; remark: listed apart in the source
Method: as §2

HCC1937 = assay: normalised viability (% of control), CellTiter-Blue; higher = more viable cells (100 = DMSO, 0 = benzethonium chloride kill control)
Method: (§3)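 DSRT, CellTiter-Blue viability, 72 h incubation. Signal is normalised to DMSO and benzethonium chloride controls. Value is the normalised response at dose 1.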

MDA-MB-231 = assay: as above
Method: as §3

DU-4475 [13] = assay: as above
Method: as §3

HCC1599 = assay: as above
Method: as §3

MDA-MB-468 = assay: as above
Method: as §3

BT-474 = assay: as above
Method: as §3

CAL-120 = assay: as above
Method: as §3

CAL-85-1 [14] = assay: as above
Method: as §3

CAL-148 [15] = assay: as above
Method: as §3

Hs578T = assay: as above
Method: as §3

HDQ-P1 [16] = assay: as above
Method: as §3

CAL-51 [17] = assay: as above
Method: as §3

MDA-MB-436 = assay: as above
Method: as §3

BT-549 = assay: as above
Method: as §3

HCC1143 = assay: as above
Method: as §3

SK-BR-3 = assay: as above
Method: as §3

MDA-MB-453 [18] = assay: as above
Method: as §3

MFM-223 = assay: as above
Method: as §3

Structure (SMILES) | normalised viability (DU-4475 [7]) [%] | normalised viability (CAL-85-1 [8]) [%] | normalised viability (CAL-148 [9]) [%] | normalised viability (HDQ-P1 [10]) [%] | normalised viability (CAL-51 [11]) [%] | normalised viability (MDA-MB-453 [12]) [%] | also measured
CN1CCC(COc2cnc(-c3cccc(Cn4nc(-c5cccc(C#N)c5)ccc4=O)c3)nc2)CC1 (10000 nM) |  |  |  |  |  |  | normalised viability (DU-4475 [1]): 2.2%; normalised viability (CAL-85-1 [2]): 6.29%; normalised viability (CAL-148 [3]): 25.8%; normalised viability (HDQ-P1 [4]): 4.94%; normalised viability (CAL-51 [5]): 6.25%; normalised viability (MDA-MB-453 [6]): 3.23%
CN(C)C/C=C/C(=O)Nc1cc2c(Nc3ccc(F)c(Cl)c3)ncnc2cc1O[C@H]1CCOC1 [Afatinib] (10000 nM) |  |  |  |  |  |  | normalised viability (DU-4475 [1]): 67.8%; normalised viability (CAL-85-1 [2]): 13.6%; normalised viability (CAL-148 [3]): 40.7%; normalised viability (HDQ-P1 [4]): 4.6%; normalised viability (CAL-51 [5]): 50.6%; normalised viability (MDA-MB-453 [6]): 14.4%
Cc1c2oc3c(C)ccc(C(=O)N[C@@H]4C(=O)N[C@H](C(C)C)C(=O)N5CCC[C@H]5C(=O)N(C)CC(=O)N(C)[C@@H](C(C)C)C(=O)O[C@@H]4C)c3nc-2c(C(=O)N[C@@H]2C(=O)N[C@H](C(C)C)C(=O)N3CCC[C@H]3C(=O)N(C)CC(=O)N(C)[C@@H](C(C)C)C(=O)O[C@@H]2C)c(N)c1=O [Dactinomycin] (300 nM) | 1.26 | 2.52 | 11.4 | 9.3 | 5.05 | 6.05 | 
COc1cccc2c1C(=O)c1c(O)c3c(c(O)c1C2=O)C[C@@](O)(C(=O)CO)C[C@@H]3O[C@H]1C[C@H](N)[C@H](O)[C@H](C)O1 [Doxorubicin] (300 nM) | 39.4 | 54 | 31.9 | 58 | 33.5 | 70.6 | 
Cc1ccc(F)c(NC(=O)Nc2ccc(-c3cccc4[nH]nc(N)c34)cc2)c1 [Linifanib] (300 nM) | 105 | 103 | 104 | 111 | 101 | 113 | 
COc1cc(Nc2ncc3c(n2)-c2ccc(Cl)cc2C(c2c(F)cccc2OC)=NC3)ccc1C(=O)O [MLN8237] (1 nM) |  |  |  |  |  |  | normalised viability (HCC1937): 101%; normalised viability (MDA-MB-231): 109%; normalised viability (DU-4475 [13]): 101%; normalised viability (HCC1599): 114%; normalised viability (MDA-MB-468): 105%; normalised viability (BT-474): 109%; normalised viability (CAL-120): 92.1%; normalised viability (CAL-85-1 [14]): 95.7%; normalised viability (CAL-148 [15]): 102%; normalised viability (Hs578T): 99.4%; normalised viability (HDQ-P1 [16]): 88.2%; normalised viability (CAL-51 [17]): 99.7%; normalised viability (MDA-MB-436): 119%; normalised viability (BT-549): 115%; normalised viability (HCC1143): 96.3%; normalised viability (SK-BR-3): 103%; normalised viability (MDA-MB-453 [18]): 93.8%; normalised viability (MFM-223): 88.5%
COc1cc(Nc2ncc3c(n2)-c2ccc(Cl)cc2C(c2c(F)cccc2OC)=NC3)ccc1C(=O)O [MLN8237] (3000 nM) | 18.3 | 69.2 | 28.8 | 58 | 26.2 | 60.1 | 
COc1cc(Nc2ncc3c(n2)-c2ccc(Cl)cc2C(c2c(F)cccc2OC)=NC3)ccc1C(=O)O [MLN8237] (10000 nM) |  |  |  |  |  |  | normalised viability (DU-4475 [1]): 21.9%; normalised viability (CAL-85-1 [2]): 56.3%; normalised viability (CAL-148 [3]): 26.2%; normalised viability (HDQ-P1 [4]): 40.9%; normalised viability (CAL-51 [5]): 18.8%; normalised viability (MDA-MB-453 [6]): 44.8%
S=c1[nH]cnc2nc[nH]c12 [Mercaptopurine] (3000 nM) | 114 | 83.3 | 90.8 | 88.9 | 90.1 | 115 | 
Clc1ccc(C(c2ccccc2Cl)C(Cl)Cl)cc1 (configuration not stated) [Mitotane] (3000 nM) | 96.2 | 94.6 | 103 | 91.7 | 111 | 113 | 
COc1cccc2cc(-c3nc([C@H]4CC[C@H](C(=O)O)CC4)n4ncnc(N)c34)[nH]c12 [OSI-027] (3000 nM) | 69.1 | 32.9 | 46.4 | 31.1 | 42.9 | 19.9 | 
OC[C@H]1O[C@@H](n2cnc3c2N=CNC[C@H]3O)C[C@@H]1O [Pentostatin] (3000 nM) | 90.9 | 96.4 | 112 | 96.8 | 95.8 | 96.8 | 
N#CC[C@H](C1CCCC1)n1cc(-c2ncnc3[nH]ccc23)cn1 [Ruxolitinib] (3000 nM) | 114 | 114 | 87.7 | 105 | 105 | 94 | 
C=CC[C@@H]1/C=C(\C)C[C@H](C)C[C@H](OC)[C@H]2O[C@@](O)(C(=O)C(=O)N3CCCC[C@H]3C(=O)O[C@H](/C(C)=C/[C@@H]3CC[C@@H](O)[C@H](OC)C3)[C@H](C)[C@@H](O)CC1=O)[C@H](C)C[C@@H]2OC [Tacrolimus] (3000 nM) | 121 | 100 | 99.2 | 116 | 99.2 | 102 | 
C=CCNC1=C2C[C@@H](C)C[C@H](OC)[C@H](O)[C@@H](C)/C=C(\C)[C@H](OC(N)=O)[C@@H](OC)/C=C\C=C(/C)C(=O)NC(=CC1=O)C2=O [Tanespimycin] (3000 nM) | 0.57 | 23 | 17.2 | 24.7 | 11.3 | 8.29 | 
CO[C@H]1C[C@@H]2CC[C@@H](C)[C@@](O)(O2)C(=O)C(=O)N2CCCC[C@H]2C(=O)O[C@H]([C@H](C)C[C@@H]2CC[C@@H](OC(=O)C(C)(CO)CO)[C@H](OC)C2)CC(=O)[C@H](C)/C=C(\C)[C@@H](O)[C@@H](OC)C(=O)[C@H](C)C[C@H](C)/C=C/C=C/C=C/1C [Temsirolimus] (300 nM) | 50.3 | 57.4 | 33.7 | 69.1 | 37.2 | 26.2 | 
CO[C@H]1C[C@@H]2CC[C@@H](C)[C@@](O)(O2)C(=O)C(=O)N2CCCC[C@H]2C(=O)O[C@H]([C@H](C)C[C@@H]2CC[C@@H](OC(=O)C(C)(CO)CO)[C@H](OC)C2)CC(=O)[C@H](C)/C=C(\C)[C@@H](O)[C@@H](OC)C(=O)[C@H](C)C[C@H](C)/C=C/C=C/C=C/1C [Temsirolimus] (1000 nM) |  |  |  |  |  |  | normalised viability (DU-4475 [1]): 49.6%; normalised viability (CAL-85-1 [2]): 57.7%; normalised viability (CAL-148 [3]): 36.1%; normalised viability (HDQ-P1 [4]): 80.6%; normalised viability (CAL-51 [5]): 32.6%; normalised viability (MDA-MB-453 [6]): 22.8%
C[C@]1(c2nc3c(C(N)=O)cccc3[nH]2)CCCN1 [Veliparib] (3000 nM) | 86.2 | 92.2 | 91.8 | 82.9 | 108 | 109 | 
CC[C@]1(O)C[C@@H]2CN(CCc3c([nH]c4ccccc34)[C@@](C(=O)OC)(c3cc4c(cc3OC)N(C)[C@H]3[C@@](O)(C(=O)OC)[C@H](OC(C)=O)[C@]5(CC)C=CCN6CC[C@]43[C@@H]65)C2)C1 [Vinblastine] (300 nM) | 20.9 | 30.8 | 17.7 | 33.5 | 16.9 | 24.4 | 
CS(=O)(=O)c1ccc(C(=O)Nc2ccc(Cl)c(-c3ccccn3)c2)c(Cl)c1 [Vismodegib] (3000 nM) | 112 | 96.4 | 83.3 | 103 | 108 | 95 | 
